# Reference: US7585871B2, “Phenanthridine carbonyl phenols” (Wyeth, priority 2004, dated 2009)
# What was measured:
# [1] = molecular target: T1, human ERα (Homo sapiens, UniProt P03372); assay: IL-6 luciferase (IL6-luc) assay in ERα infected HAECT-1 cells; format: cell-based; settings: for IC50: ERα infected HAECT-1 cells, IL-1β, Ad5-IL-6(1250 bp).Luc virus, 15-20 h; for IL6-luc (% E2): efficacy relative to E2, value in parentheses after the IC50
# T1 construct: expressed in transfected cells; host or cells: HAECT-1 cells (immortalized human aortic endothelial cells) infected with Ad5-wt-hERα adenovirus
# T1 sequence (P03372 1-595): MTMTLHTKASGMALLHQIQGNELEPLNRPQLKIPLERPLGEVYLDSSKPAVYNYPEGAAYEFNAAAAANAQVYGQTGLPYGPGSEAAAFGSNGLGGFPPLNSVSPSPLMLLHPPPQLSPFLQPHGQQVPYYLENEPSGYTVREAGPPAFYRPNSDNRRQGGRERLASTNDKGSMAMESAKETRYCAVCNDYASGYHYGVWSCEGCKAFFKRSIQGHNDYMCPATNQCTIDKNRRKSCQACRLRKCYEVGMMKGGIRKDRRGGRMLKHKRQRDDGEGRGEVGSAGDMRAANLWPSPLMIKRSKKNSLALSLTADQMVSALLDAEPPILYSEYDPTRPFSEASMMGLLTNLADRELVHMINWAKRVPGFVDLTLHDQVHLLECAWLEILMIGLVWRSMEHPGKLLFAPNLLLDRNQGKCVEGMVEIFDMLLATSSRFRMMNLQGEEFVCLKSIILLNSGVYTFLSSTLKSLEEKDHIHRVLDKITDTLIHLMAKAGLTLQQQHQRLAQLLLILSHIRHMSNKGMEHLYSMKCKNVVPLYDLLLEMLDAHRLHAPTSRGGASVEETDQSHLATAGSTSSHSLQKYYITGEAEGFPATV
# Protocol: (§1) After four hours, cells were washed with EBM-BSA and incubated overnight in the same medium. Following overnight incubation, cells were washed with EBM-BSA and infected for 2 hours with 6 ml of a 1:10 dilution of Ad5-3x(NFκB).Luc virus (Adenovirus luciferase expression vector driven by 3 repeats of the MHC NFκb site 5′ to the thymidine kinase promoter) in EBM-BSA. After two hours, cells were washed and incubated at 34° C. for 1 hour. […] Control (no ER infection) cells were processed as above without Ad5-wt-hERα virus infection.
# (§2) ERα infected HAECT-1 cells or control cells were thawed, diluted 42× in warm EBM-BSA, plated into 96-well plates at 0.1 ml/well and incubated for 4 h at 34° C. […] After 15-20 h, cells are lysed with 50 ul of Promega Cell Culture Lysis reagent for ˜5 min at room temp on shaker. After lysing, 15 ul of lysate is transferred to luminometer plates for luciferase determination. […] Creatine kinase was determined from the rate of increase in A340 following addition of 100 uL of CK assay reagent (Sigma, cat. No 47-10) to the remainder of the cell lysate.
# (§3) For IC50 and EC50 calculations, mean IL-6, luciferase or CK values versus log10 of the compound concentration were fitted to a four parameter logistic equation. The IC50/EC50 value, ‘Hill slope’, upper and lower limits of the curve were iteratively estimated.
# [2] = molecular target: T1, human ERα; assay: Creatine kinase (CK) assay in ERα infected HAECT-1 cells; format: cell-based; settings: for EC50: creatine kinase in lysate of ERα infected HAECT-1 cells; for CK (% E2): efficacy relative to E2, value in parentheses after the EC50
# Protocol: as §1, §2, §3
melting point [°C],IC50 [1] [nM],IL6-luc (% E2) [1] [%],EC50 [2] [nM],CK (% E2) [2] [%],CK (% E2) at a single concentration ([2]; @ 1 μM) [% @ 1 μM],Compound
235.7 to 236.8,6,114,28,20,–,"C[C@@H]1c2ccccc2-c2ccc(F)cc2N1C(=O)c1ccc(O)cc1 (single isomer, unassigned) [Example 37]"
98 to 100,2,106,3,38,–,"CC[C@@H]1c2cc(F)ccc2-c2ccccc2N1C(=O)c1ccc(O)cc1O [Example 22, 4-{[(6R)-6-ethyl-8-fluorophenanthridin-5(6H)-yl]carbonyl}benzene-1,3-diol]"
273.5 to 276,6,120,69,32,–,"C[C@@H]1c2ccccc2-c2ccc(Cl)cc2N1C(=O)c1ccc(O)cc1 [Example 28, 4-{[(6R)-3-chloro-6-methylphenanthridin-5(6H)-yl]carbonyl}phenol]"
184 to 187,1,107,8,20,–,"C[C@@H]1c2ccccc2-c2ccc(F)cc2N1C(=O)c1ccc(O)cc1O (single isomer, unassigned) [Example 40]"
193 to 195,4.5,95,90,37,–,"CC1c2cc(F)ccc2-c2ccc(F)cc2N1C(=O)c1ccc(O)cc1 (racemic) [Example 42, 4-[(3,8-difluoro-6-methylphenanthridin-5(6H)-yl)carbonyl]phenol]"
101 to 102,40,134,–,–,50,"CC[C@@H]1c2cc(F)ccc2-c2ccccc2N1C(=O)c1cccc(O)c1 [Example 21, 3-{[(6R)-6-ethyl-8-fluorophenanthridin-5(6H)-yl]carbonyl}phenol]"
